Laboratory results reported in patent US8399425B2, “Alleviating neuropathic pain with EETs and sEH inhibitors” (The Regents of the University of California, priority 2007, dated 2013).

Tests used:
metabolism and stability = conditions: in vivo
sEH [1] = molecular target: T1, sEH (Homo sapiens, UniProt P34913); assay: inhibition of sEH; format: biochemical
T1 sequence (P34913 1-555): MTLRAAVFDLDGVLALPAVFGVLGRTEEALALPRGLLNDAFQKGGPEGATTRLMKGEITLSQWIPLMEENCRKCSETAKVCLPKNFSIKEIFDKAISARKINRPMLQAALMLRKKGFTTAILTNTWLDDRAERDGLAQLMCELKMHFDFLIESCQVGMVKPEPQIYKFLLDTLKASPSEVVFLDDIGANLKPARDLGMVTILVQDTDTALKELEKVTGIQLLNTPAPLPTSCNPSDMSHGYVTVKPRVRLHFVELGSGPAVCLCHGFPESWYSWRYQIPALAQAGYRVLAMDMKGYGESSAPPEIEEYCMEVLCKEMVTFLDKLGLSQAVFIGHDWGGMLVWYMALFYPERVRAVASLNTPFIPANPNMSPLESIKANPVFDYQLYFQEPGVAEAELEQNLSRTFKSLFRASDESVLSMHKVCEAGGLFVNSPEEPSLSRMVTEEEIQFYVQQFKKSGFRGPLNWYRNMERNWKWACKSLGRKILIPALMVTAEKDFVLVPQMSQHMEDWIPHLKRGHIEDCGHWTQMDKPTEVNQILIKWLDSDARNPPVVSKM
Source text: (§1) Any of a number of standard assays for determining epoxide hydrolase activity can be used to determine inhibition of sEHI. […] Suitable in vitro assays are described in Zeldin et al. J. Biol. Chem. 268:6402-6407 (1993). Suitable in vivo assays are described in Zeldin et al., Arch Biochem Biophys 330:87-96 (1996).
(§2) The enzyme also can be detected based on the binding of specific ligands to the catalytic site which either immobilize the enzyme or label it with a probe such as dansyl, fluoracein, luciferase, green fluorescent protein or other reagent. The enzyme can be assayed by its hydration of EETs, its hydrolysis of an epoxide to give a colored product as described by Dietze et al., 1994, supra, or its hydrolysis of a radioactive surrogate substrate (Borhan et al., 1995, supra). The enzyme also can be detected based on the generation of fluorescent products following the hydrolysis of the epoxide. Numerous methods of epoxide hydrolase detection have been described (see, e.g., Wixtrom, supra).
(§3) The assays are normally carried out with a recombinant enzyme following affinity purification. They can be carried out in crude tissue homogenates, cell culture or even in vivo, as known in the art and described in the references cited above.

rat sEH = molecular target: T2, rat sEH (Rattus norvegicus, UniProt P80299); assay: rat sEH inhibition; format: biochemical
T2 sequence (P80299 1-554): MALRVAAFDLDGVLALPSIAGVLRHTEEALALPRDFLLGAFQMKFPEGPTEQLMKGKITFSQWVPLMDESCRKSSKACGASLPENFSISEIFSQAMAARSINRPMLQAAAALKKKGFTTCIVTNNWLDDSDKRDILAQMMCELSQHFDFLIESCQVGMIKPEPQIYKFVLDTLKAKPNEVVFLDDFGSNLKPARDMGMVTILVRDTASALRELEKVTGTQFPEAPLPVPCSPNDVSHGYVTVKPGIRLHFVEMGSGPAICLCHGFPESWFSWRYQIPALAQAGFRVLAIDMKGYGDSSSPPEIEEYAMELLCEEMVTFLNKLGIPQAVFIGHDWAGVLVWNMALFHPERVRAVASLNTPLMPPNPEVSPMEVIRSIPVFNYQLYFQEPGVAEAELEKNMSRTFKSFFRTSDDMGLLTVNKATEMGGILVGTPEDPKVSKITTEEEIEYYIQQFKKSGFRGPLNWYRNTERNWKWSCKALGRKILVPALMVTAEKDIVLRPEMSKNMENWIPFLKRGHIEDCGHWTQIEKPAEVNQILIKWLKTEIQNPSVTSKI

[2] = test system: streptozocin induced neuropathic pain; assay: von Frey test (mechanical allodynia) in streptozocin neuropathic rats; format: in vivo, rat; conditions: neuropathic pain model
Experimental: Male Sprague-Dawley rats weighing 250-300 grains were used. Animals were individually housed at UC Davis Animal Resource Facility under standard conditions with free access to food and water, and maintained for at least 1 week before the experiments. Pain was quantified using three tests, the hind paw withdrawal latency test, the mechanical hyperalgesia test and the mechanical allodynia test. All the experiments were performed during the daytime.
Rats were first trained to the experimental chamber in two separate sessions. On the day of the induction of neuropathy, the animals' basal response to all three tests were measured and then streptozocin (50 mg/kg) was administered intravenously. Animals were then followed over time for the development of neuropathic pain. An inhibitor of sEH was administered subcutaneously one week after the onset of pain symptoms. […] Compounds were formulated by dissolving them in ethanol and mixing with trans free oleic oil. At least six animals per group were used. The Von Frey test was conducted by stimulating the plantar surface of the rats' hind paw with a calibrated filament connected to a force transducer. As this filament is applied the amount of force exerted on the paw increases and the animal withdraws its paw when the force reaches its threshold. […] In the Randal-Selitto test a similar principle is used. The animals' hind paw is placed between a flat surface and a pointed tip of a force transducer. The pointed tip exerts force on the dorsal face of the paw. […] The two tests are complementary, but depend on the activity of different groups of nociceptors.
Treatments and behavioral nociceptive tests. […] Following baseline measurements, rats were first treated with 200 μl of vehicle or compound-formulated cream by topical application to one hindpaw, LPS ([…] in 50 μl 0.9% NaCl) was injected into the plantar surface of the treated paw. For subcutaneous administration, compounds were injected immediately after intraplantar LPS. […] A probe fitted with a filament that is connected to a force transducer was applied to the plantar hind paw surface through a wire-mesh platform until eliciting a withdrawal reflex. The duration of heat application or the force (gr) necessary to elicit a withdrawal was designated as TWL and MWT. The steroidogenesis inhibitors were applied 2 hours before sEHI and LPS administration. Diabetes was induced by intravenous injection of 50 mg/kg streptozocin (STZ) in saline following baseline measurements. Diabetic animals were tested at least one week after STZ administration. Three measurements were taken from each animal at each time point and average responses were converted to percent analgesia index based on each animals' baseline response.

[3] = test system: streptozocin induced neuropathic pain; assay: mechanical hyperalgesia test (Randal-Selitto) in streptozocin neuropathic rats; format: in vivo, rat
Experimental: Male Sprague-Dawley rats weighing 250-300 grains were used. Animals were individually housed at UC Davis Animal Resource Facility under standard conditions with free access to food and water, and maintained for at least 1 week before the experiments. Pain was quantified using three tests, the hind paw withdrawal latency test, the mechanical hyperalgesia test and the mechanical allodynia test. All the experiments were performed during the daytime. Rats were first trained to the experimental chamber in two separate sessions. On the day of the induction of neuropathy, the animals' basal response to all three tests were measured and then streptozocin (50 mg/kg) was administered intravenously. Animals were then followed over time for the development of neuropathic pain. An inhibitor of sEH was administered subcutaneously one week after the onset of pain symptoms. […] Pain response was measured at 60, 120, 240 and 480 minutes after the administration of the sEHI. Compounds were formulated by dissolving them in ethanol and mixing with trans free oleic oil. At least six animals per group were used. The Von Frey test was conducted by stimulating the plantar surface of the rats' hind paw with a calibrated filament connected to a force transducer. As this filament is applied the amount of force exerted on the paw increases and the animal withdraws its paw when the force reaches its threshold. […] In the Randal-Selitto test a similar principle is used. The animals' hind paw is placed between a flat surface and a pointed tip of a force transducer. The pointed tip exerts force on the dorsal face of the paw. […] The two tests are complementary, but depend on the activity of different groups of nociceptors.

sEH [4] = assay: inhibition of sEH; format: biochemical; conditions: relative to parent compound
Source text: as §1, §2, §3

| Compound | metabolic stability (metabolism and stability) | activity as inhibitor of sEH (sEH [1]) | IC50 (rat sEH) [nM] | pain scores of diabetic rats [2] | pain, mechanical hyperalgesia test (FIG. 3) ([3]; 25 mg/kg) | mechanical allodynia induced by diabetic neuropathy (FIG. 3 legend) ([3]; compound 1010 at equivalent dose) | fold less active in inhibiting sEH than parent compound (sEH [4]) [fold] |
| --- | --- | --- | --- | --- | --- | --- | --- |
| CCCCCCCCCCCCNC(=O)NC12CC3CC(CC(C3)C1)C2 [ADU, N-Adamantyl-N-dodecyl urea] | metabolically stable | particularly high activity on sEH | – | – | – | – | – |
| CCOCCOCCOCCCCCNC(=O)NC12CC3CC(CC(O)(C3)C1)C2 [compound 1010, reference compound] | – | – | 1160 | not | showed no effectiveness | shows no effectiveness in reducing nociception | 250 |
